Experimental findings from publication PMC7373191, “Escherichia coli K-12 Lacks a High-Affinity Assimilatory Cysteine Importer” (mBio, 2020) are described below.

What all share (type): cell-based, Escherichia coli
Series [1] concerns the target T1, (UniProt P04816+P0AD96).
T1 construct: gene livJ; native chromosomal ABC importer in whole cells; other candidate importers deleted
Nature of the series: inhibition of […]cysteine uptake into whole cells, filtration. As to conditions: read-out: 50% inhibition.

In series [2] the target is T1, (UniProt P04816+P0AD96). Briefly: inhibition of […]leucine uptake into whole cells, filtration. To be noted: read-out: 50% inhibition.
Substrate in series [3]: N[C@@H](CS)C(=O)O
Briefly: cells, lysate or membranes. To be noted: strain ZYD214, no other amino acids, 93-s time point, 37 °C, minimal glucose medium pH 7.0, DTPA and chloramphenicol, labelled compound.

T1 sequence (P22731 whole entry, one chain of several): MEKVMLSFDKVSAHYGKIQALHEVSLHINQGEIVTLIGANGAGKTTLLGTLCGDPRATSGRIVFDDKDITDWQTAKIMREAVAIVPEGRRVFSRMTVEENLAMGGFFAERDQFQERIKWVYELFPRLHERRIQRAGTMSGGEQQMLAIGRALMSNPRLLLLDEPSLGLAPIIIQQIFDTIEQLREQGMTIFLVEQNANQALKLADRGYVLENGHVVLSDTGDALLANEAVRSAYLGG
T1 sequence (P0AEX7 whole entry, one chain of several, further chain): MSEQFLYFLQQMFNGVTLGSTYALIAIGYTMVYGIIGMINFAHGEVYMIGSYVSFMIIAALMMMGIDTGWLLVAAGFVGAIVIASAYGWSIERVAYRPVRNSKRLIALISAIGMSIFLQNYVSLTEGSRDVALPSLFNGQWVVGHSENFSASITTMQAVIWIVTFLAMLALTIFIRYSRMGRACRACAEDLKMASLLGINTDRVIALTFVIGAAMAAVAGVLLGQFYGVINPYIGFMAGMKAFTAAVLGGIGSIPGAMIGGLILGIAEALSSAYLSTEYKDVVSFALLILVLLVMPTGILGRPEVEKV
T1 sequence (P22729 whole entry, one chain of several, further chain): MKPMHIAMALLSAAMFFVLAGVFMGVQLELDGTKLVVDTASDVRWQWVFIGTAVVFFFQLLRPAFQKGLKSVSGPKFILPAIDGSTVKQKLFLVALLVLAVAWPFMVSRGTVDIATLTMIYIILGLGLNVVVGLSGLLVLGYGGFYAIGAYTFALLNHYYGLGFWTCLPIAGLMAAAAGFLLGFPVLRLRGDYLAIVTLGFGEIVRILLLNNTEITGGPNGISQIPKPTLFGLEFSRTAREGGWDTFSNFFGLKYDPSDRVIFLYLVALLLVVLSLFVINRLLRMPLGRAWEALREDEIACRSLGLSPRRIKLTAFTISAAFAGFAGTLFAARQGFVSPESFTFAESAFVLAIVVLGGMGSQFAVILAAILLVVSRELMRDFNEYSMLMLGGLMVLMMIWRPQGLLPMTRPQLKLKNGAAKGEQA
T1 sequence (P0A9S7 whole entry, one chain of several, further chain): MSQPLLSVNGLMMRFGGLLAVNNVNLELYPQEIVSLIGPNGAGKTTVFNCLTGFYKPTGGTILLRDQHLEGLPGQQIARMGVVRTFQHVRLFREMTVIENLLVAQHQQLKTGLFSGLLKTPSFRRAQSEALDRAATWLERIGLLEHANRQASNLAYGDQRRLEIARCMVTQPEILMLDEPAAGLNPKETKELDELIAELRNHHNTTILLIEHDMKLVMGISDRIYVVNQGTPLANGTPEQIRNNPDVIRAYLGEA

`CC(C)C[C@H](N)C(=O)O` [leucine]: at (UniProt P04816+P0AD96) [1], the IC50 is around 2 µM.

Take `N[C@@H](CS)C(=O)O` [cysteine]: the IC50 at (UniProt P04816+P0AD96) [2] is around 400 µM.

B1: LIV system (LivJ/LivKHMGF) (Escherichia coli K-12) (protein)
chain 1: EDIKVAVVGAMSGPVAQYGDQEFTGAEQAVADINAKGGIKGNKLQIVKYDDACDPKQAVAVANKVVNDGIKYVIGHLCSSSTQPASDIYEDEGILMITPAATAPELTARGYQLILRTTGLDSDQGPTAAKYILEKVKPQRIAIVHDKQQYGEGLARAVQDGLKKGNANVVFFDGITAGEKDFSTLVARLKKENIDFVYYGGYHPEMGQILRQARAAGLKTQFMGPEGVANVSLSNIAGESAEGLLVTKPKNYDQVPANKPIVDAIKAKKQDPSGAFVWTTYAALQSLQAGLNQSDDPAEIAKYLKANSVDTVMGPLTWDEKGDLKGFEFGVFDWHANGTATDAK
chain 2: DDIKVAVVGAMSGPIAQWGDMEFNGARQAIKDINAKGGIKGDKLVGVEYDDACDPKQAVAVANKIVNDGIKYVIGHLCSSSTQPASDIYEDEGILMISPGATNPELTQRGYQHIMRTAGLDSSQGPTAAKYILETVKPQRIAIIHDKQQYGEGLARSVQDGLKAANANVVFFDGITAGEKDFSALIARLKKENIDFVYYGGYYPEMGQMLRQARSVGLKTQFMGPEGVGNASLSNIAGDAAEGMLVTMPKRYDQDPANQGIVDALKADKKDPSGPYVWITYAAVQSLATALERTGSDEPLALVKDLKANGANTVIGPLNWDEKGDLKGFDFGVFQWHADGSSTAAK
notes: native chromosomal ABC importer in whole cells; other candidate importers deleted
In general, Km refers to the substrate concentration at which the rate is half of its maximum. Regarding B1, the Michaelis constant (Km) in series [3] stood at 20 µM.
